Series [1] concerns MDA-MB-231. The series can be described thus: Antiproliferative activity against human MDA-MB-231 cells assessed as reduction in cell proliferation incubated for 48 hrs by MTT assay. It counts as functional, cell-based. The following applies: MDA-MB-231, 48 h.
For series [2], the system named is MCF7. The series can be described thus: Antiproliferative activity against Doxorubicin-resistant human MCF7 cells assessed as reduction in cell proliferation incubated for 48 hrs by MTT assay. Format: functional, cell-based. The note with it: MCF7, 48 h.
Series [3] has as its system MCF7. The series is described as follows: Antiproliferative activity against human MCF7 cells assessed as reduction in cell proliferation incubated for 48 hrs by MTT assay. Format: functional, cell-based. The note with it: MCF7, 48 h.
The nature of series [4]: Selectivity index, ratio of IC50 for antiproliferative activity against human MCF-10A cells to IC50 for antiproliferative activity against human MCF7 cells by MTT assay. The note with it: MCF-10A cells versus MCF7 cells, read-out: Selectivity Index. It counts as toxicity, cell-based.
In series [5] the test system is MCF-10A. The series is described as follows: Antiproliferative activity against human MCF-10A cells assessed as reduction in cell proliferation incubated for 48 hrs by MTT assay. Format: functional, cell-based.
For series [6], the system named is MDA-MB-231. The series can be described thus: Antiproliferative activity against human MDA-MB-231 cells assessed as inhibition of cell growth by MTT assay. It counts as functional, cell-based.
For series [7], the system named is C-33-A. The series is described as follows: Antiproliferative activity against human C-33-A cells assessed as reduction in cell viability measured after 48 hrs by MTT assay. Format: functional, cell-based.
The subject of series [8] is MCF7. The series can be described thus: Antiproliferative activity against human MCF7 cells assessed as reduction in cell viability measured after 48 hrs by MTT assay. The following applies: MCF7, 48 h. It counts as functional, cell-based.
In series [9] the test system is T47D. The series is described as follows: Antiproliferative activity against human T47D cells assessed as reduction in cell viability measured after 48 hrs by MTT assay. Format: functional, cell-based.
For series [10], the system named is MDA-MB-231. The series can be described thus: Antiproliferative activity against human MDA-MB-231 cells assessed as reduction in cell viability measured after 48 hrs by MTT assay. Format: functional, cell-based. The note with it: MDA-MB-231, 48 h.
Series [11] relates to MDA-MB-361. The series is described as follows: Antiproliferative activity against human MDA-MB-361 cells assessed as reduction in cell viability measured after 48 hrs by MTT assay. It counts as functional, cell-based. The following applies: MDA-MB-361, 48 h.
The subject of series [12] is HEK293. The series can be described thus: Antiproliferative activity against human HEK293 cells assessed as inhibition of cell growth measured after 24 hrs by MTT assay. The following applies: HEK293, 24 h. Format: functional, cell-based.
Series [13] relates to MCF7. The series is described as follows: Antiproliferative activity against human MCF7 cells assessed as inhibition of cell proliferation incubated for 24 hrs by MTT assay. Format: functional, cell-based. The following applies: MCF7, 24 h.
In series [14] the test system is MDA-MB-231. The series can be described thus: Antiproliferative activity against human MDA-MB-231 cells assessed as inhibition of cell proliferation incubated for 24 hrs by MTT assay. Format: functional, cell-based. The note with it: MDA-MB-231, 24 h.
For series [15], the system named is MCF7. The series can be described thus: Antiproliferative activity against human MCF7 cells assessed as reduction in cell viability. It counts as functional, cell-based.
The subject of series [16] is HEK293. The series is described as follows: Antiproliferative activity against human HEK293 cells assessed as inhibition of cell proliferation measured after 24 hrs by MTT assay. It counts as functional, cell-based. The note with it: HEK293, 24 h.
For series [17], the system named is MCF7. The series is described as follows: Antiproliferative activity against human MCF7 cells assessed as reduction in cell viability measured after 24 hrs by MTT assay. Format: functional, cell-based. The note with it: MCF7, 24 h.
Series [18] has as its system MCF7. The series can be described thus: Antiproliferative activity against human MCF7 cells assessed as cell growth inhibition measured after 24 hrs by MTT assay. It counts as functional, cell-based. The following applies: MCF7, 24 h.
Series [19] addresses T1, Prostaglandin G/H synthase 2 (Homo sapiens) (UniProt P35354).
T1 sequence (whole entry): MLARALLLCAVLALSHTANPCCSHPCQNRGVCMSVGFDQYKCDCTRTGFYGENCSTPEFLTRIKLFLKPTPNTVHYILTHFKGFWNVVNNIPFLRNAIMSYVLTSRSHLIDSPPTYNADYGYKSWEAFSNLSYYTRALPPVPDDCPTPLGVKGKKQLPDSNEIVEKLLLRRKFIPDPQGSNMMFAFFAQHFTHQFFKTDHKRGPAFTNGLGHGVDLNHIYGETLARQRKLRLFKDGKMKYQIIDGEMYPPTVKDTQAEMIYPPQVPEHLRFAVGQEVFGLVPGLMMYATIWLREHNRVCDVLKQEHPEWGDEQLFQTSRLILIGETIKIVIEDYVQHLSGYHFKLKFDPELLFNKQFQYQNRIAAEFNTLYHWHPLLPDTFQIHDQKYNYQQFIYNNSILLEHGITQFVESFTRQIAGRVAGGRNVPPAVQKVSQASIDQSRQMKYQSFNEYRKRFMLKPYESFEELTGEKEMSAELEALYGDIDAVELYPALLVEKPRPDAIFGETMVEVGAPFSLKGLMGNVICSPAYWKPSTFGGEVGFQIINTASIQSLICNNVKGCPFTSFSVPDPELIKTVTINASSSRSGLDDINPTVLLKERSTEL
The series is described as follows: Inhibition of COX-2 (unknown origin) at 50 uM by fluorescence based method relative to control.

Series [20] has as its system MDA-MB-231. The series is described as follows: Antiproliferative activity against human MDA-MB-231 cells assessed as inhibition of cell growth incubated for 72 hrs by Celltiter Glo assay. Format: functional, cell-based. The following applies: MDA-MB-231, 72 h.
Series [21] deals with MDA-MB-231. The series can be described thus: Antiproliferative activity against human MDA-MB-231 cells assessed as reduction in cell viability measured after 24 hrs by MTT assay. It counts as functional, cell-based. The note with it: MDA-MB-231, 24 h.

Consider `CCO/N=C1/C(=O)N(CCCOC2O[C@@H]3O[C@@]4(C)CC[C@H]5[C@H](C)CC[C@@H]([C@H]2C)[C@@]35OO4)c2ccc(F)cc21` (stereo partly drawn), for which the half-inhibitory concentration (IC50) is 23.9 µM in [1], 21.7 µM in [2], 20.7 µM in series [3] and over 100 µM in series [5]. The selectivity ratio in series [4] is over 1.3.
Regarding `O=C1C(=O)N(CCn2cc(COCCOc3ccc(/C(=C(/CCCl)c4ccccc4)c4ccccc4)cc3)nn2)c2c(Br)cc(Br)cc21`, the IC50 in series [6] is 48.5 µM.
Turning to `C[C@H]1[C@@H](CC(=O)OC[C@H]2C[C@H]3[C@@H]4CCc5cc(OCc6ccccc6)ccc5[C@H]4CC[C@]3(C)[C@H]2O)OC2O[C@]3(C)CC[C@H]4[C@H](C)CC[C@@H]1[C@@]24OO3` (stereo partly drawn), the EC50 in series [7] is 0.15 µM; in series [8], 0.45 µM; in series [9], 0.93 µM; in series [10] it was 0.86 µM; in [11] it was 0.18 µM.
With `Cc1ncc([N+](=O)[O-])n1Cc1cn(CCCCN2C(=O)C(=O)c3cc(Cl)ccc32)nn1`, the IC50 in series [12] amounted to 12.1 µM.
Regarding `COc1ccc2c3c([nH]c2c1)[C@]12CC(C)(C)[C@@]4(C(=O)N1CC3)c1[nH]c3cc(OC)ccc3c1CCN24`, the 50% inhibitory concentration (IC50) in series [13] came out at 38.5 µM.
With `CCOC(=O)[C@H]1Cc2c([nH]c3ccccc23)CN1Cc1cn(CCCN2C(=O)C(=O)c3ccccc32)nn1`, the IC50 in series [14] is over 100 µM; in series [13], 37.4 µM.
Regarding `CCOC(=O)[C@H]1Cc2c([nH]c3ccccc23)CN1Cc1cn(CCCOc2ccc(C(=O)/C=C/c3ccc(F)cc3)cc2)nn1`, the IC50 in series [15] was 10.3 µM.
On to `COc1cccc(OC)c1C1CC(c2ccc(OCc3cn(CCCN4C(=O)c5cccc6cccc(c56)C4=O)nn3)cc2)=NN1C(C)=O` (stereo not drawn), for which the half-inhibitory concentration (IC50) in series [16] is over 100 µM; in series [17], 62.2 µM; in series [18] it was 62.2 µM.
`OC[C@H]1O[C@@H](Cc2cc(-c3c[nH]c4ccccc34)on2)[C@H](O)[C@@H](O)[C@@H]1O` showed an inhibition in [19] of 95%. Moreover, in series [20], the IC50 is 35.5 µM.
Regarding `CCOC(=O)[C@H]1Cc2c([nH]c3ccccc23)CN1Cc1cn(CCCCCOc2ccc(C(=O)/C=C/c3cc(OC)c(OC)c(OC)c3)cc2)nn1`, the IC50 was found to be 22.3 µM in [20] and 22 µM in series [21].

Source of the values: ChEMBL document CHEMBL5252593, “Therapeutic significance of molecular hybrids for breast cancer research and treatment” (RSC Med Chem, 2023).
